Where a name gives a salt, the structure may show the parent alone.
Columns and labels:
[1] = biological target: T1, human serotonin transporters (Homo sapiens, UniProt P31645); assay: Serotonin transporter binding assay, [3H]-citalopram, HEK-hSERT membranes; details: for IC50: HEK-hSERT membranes, 1 nM [3H]-citalopram displacement, read-out: SERT IC50; for activity for SERT: summary statement referring to Table 1
T1 construct: expressed in transfected cells; host or cells: HEK-293 cells stably expressing hSERT (G418 selection), membranes
T1 sequence (P31645 whole entry): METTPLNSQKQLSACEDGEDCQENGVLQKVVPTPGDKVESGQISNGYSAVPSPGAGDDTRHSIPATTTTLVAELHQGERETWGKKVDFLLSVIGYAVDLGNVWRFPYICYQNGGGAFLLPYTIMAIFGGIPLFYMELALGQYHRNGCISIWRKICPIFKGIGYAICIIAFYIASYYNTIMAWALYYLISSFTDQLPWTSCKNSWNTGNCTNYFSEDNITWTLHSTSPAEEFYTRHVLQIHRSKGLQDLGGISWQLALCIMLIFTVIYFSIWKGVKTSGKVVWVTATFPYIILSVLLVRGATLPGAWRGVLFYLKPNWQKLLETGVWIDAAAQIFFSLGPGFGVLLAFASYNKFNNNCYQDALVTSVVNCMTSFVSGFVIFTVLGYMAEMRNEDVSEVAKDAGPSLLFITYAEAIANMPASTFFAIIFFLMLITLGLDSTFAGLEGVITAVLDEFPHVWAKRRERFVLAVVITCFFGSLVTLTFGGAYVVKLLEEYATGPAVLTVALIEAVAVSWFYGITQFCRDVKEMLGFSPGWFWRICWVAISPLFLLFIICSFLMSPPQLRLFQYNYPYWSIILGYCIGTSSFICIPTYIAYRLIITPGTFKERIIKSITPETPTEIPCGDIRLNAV
Description: Serotonin Transporter Binding Assay
HEK-293 cells that stably express human serotonin transporters (HEK-hSERT cells) were grown at 37° C. in 5% CO2 as a monolayer in medium consisting of EMEM supplemented with 10% fetal bovine serum and G418 sulfate (500 μg/ml). To prepare membranes for radioligand binding experiments, cells were rinsed twice with phosphate-buffered saline (138 mM NaCl, 4.1 mM KCl, 5.1 mM Na2PO4, 1.5 mM […], 11.1 mM glucose, pH 7.4). Cells were transferred from plates to polypropylene tubes (16×100 mm), centrifuged at 1,200×g for 5 min and were frozen at −80° C. until assay. Following centrifugation, pellets were resuspended by homogenization in buffer consisting of 50 mM Tris (pH 7.7 at 25° C.), 120 mM NaCl and 5 mM KCl and then centrifuged at 32,000×g for 10 min. Following centrifugation, supernatants were discarded and pellets were resuspended in buffer consisting of 50 mM Tris (pH 7.4 at 25° C.), 150 mM NaCl and 5 mM KCl. Membrane homogenates (200 μl/plate) were incubated with 1 nM [^3H]-citalopram (specific activity=85 Ci/mmol) and increasing concentrations of test compounds for 1 hr at 25° C. in a total volume of 250 μl. The assay buffer consisted of 50 mM Tris (pH 7.4 at 25° C.), 120 mM NaCl and 5 mM KCl (pH 7.4 with conc. HCl). Plates were incubated for 1 hr at 25° C., then filtered through 0.5% PEI treated Whatman GF/B filters using a Brandel cell harvester. Filters were washed three times with 3 ml of ice-cold Tris wash buffer. Non-specific binding was defined with 10 μM fluoxetine. Amount of radioligand bound in the presence and absence of competitor was analyzed by plotting (−)log drug concentration versus the amount of radioligand specifically bound. The midpoint of the displacement curve (IC50, nM), signifies the potency. Ki values were calculated using the method of Cheng and Prusoff [Cheng, Y.-C. and Prusoff, W. H., Biochemical Pharmacology, Vol. 22, pp. 3099–3108, Pergamon Press (1973)].

[2] = biological target: T2, neurokinin-1 (NK-1) receptor (Homo sapiens, UniProt P25103); assay: NK-1 binding, [125I] Substance P competition, U373 cell membranes; details: for IC50: U373 membranes, Bolton Hunter [125I] Substance P displacement; for activity for NK-1: summary statement referring to Table 1
T2 construct: a human glioblastoma-astrocytoma cell line that endogenously expresses the neurokinin-1 (NK-1) receptor; endogenous in cells; host or cells: U373 human glioblastoma-astrocytoma cells (membranes)
T2 sequence (P25103 whole entry): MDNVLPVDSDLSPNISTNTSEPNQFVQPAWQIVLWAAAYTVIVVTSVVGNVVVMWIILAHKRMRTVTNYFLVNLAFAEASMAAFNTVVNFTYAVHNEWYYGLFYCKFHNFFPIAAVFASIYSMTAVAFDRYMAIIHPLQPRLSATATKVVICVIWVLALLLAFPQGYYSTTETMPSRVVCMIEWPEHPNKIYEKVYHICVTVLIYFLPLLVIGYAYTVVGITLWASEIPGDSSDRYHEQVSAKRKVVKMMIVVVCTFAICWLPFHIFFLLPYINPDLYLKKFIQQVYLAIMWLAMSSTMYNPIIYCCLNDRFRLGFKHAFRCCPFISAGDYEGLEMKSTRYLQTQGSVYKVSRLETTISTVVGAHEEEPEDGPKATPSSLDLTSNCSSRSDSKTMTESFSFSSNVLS
Description: U373 cells, a human glioblastoma-astrocytoma cell line that endogenously expresses the neurokinin-1 (NK-1) receptor, were grown in a monolayer culture at 37° C. in 5% CO2 and fed with Minimum Essential Medium (MEM) supplemented with 10% fetal bovine serum. Membranes were prepared as follows: Cells were washed twice with ice-cold phosphate-buffered saline (pH 7.4) and then incubated for 5 to 10 minutes with ice-cold 10 mM Tris buffer (pH 7.4) containing 5 mM EDTA. Cells were removed from plates, homogenized, and centrifuged at 32,000×g for 20 minutes. The resulting supernatant was discarded, and the pellet resuspended by homogenization in 50 mM Tris buffer (pH 7.4) containing 1 mM EDTA and centrifuged at 32,000×g for 20 minutes. The resulting supernatant was discarded, and the pellet resuspended by homogenization in NK-1 binding assay buffer (50 mM Tris-HCL (pH 7.4), 3 mM MnCl2, 200 μg/ml BSA, 5 μg/ml chymostatin, 40 μg/ml bacitracin and 4 μg/ml leupeptin).
On the day of an experiment the membrane preparation was thawed, homogenized and diluted with NK-1 binding assay buffer to the appropriate concentration. Competition binding assays were performed in 96 well plate format by incubating membranes (5–10 ug/well) with Bolton Hunter labeled [^125I] Substance P, at a concentration of […], and concentrations of drugs ranging from 10000 to 0.01 nM. Samples were incubated for 30 min at 20° C. then filtered through GF/B glass fiber filters (pretreated with 1% polyethyleneimine and 0.3% Triton X-100) using a Brandel cell harvester. The filters were then washed with 10 ml ice cold 50 mM Tris-HCL (pH 7.4) containing 3 mM MgCl2. Non-specific was defined in the presence of 2 μM L-733,060 (a non-peptide NK-1 antagonist). Amount of radioligand bound in the presence and absence of competitor was analyzed by plotting (−)log drug concentration versus the amount of radioligand specifically bound. The midpoint of the displacement curve (IC50, nM), signifies the potency. Ki values were calculated using the method of Cheng and Prusoff [Cheng, Y.-C. and Prusoff, W. H., Biochemical Pharmacology, Vol. 22, pp. 3099–3108, Pergamon Press (1973)].

| SMILES | IC50 [1] [nM] | activity for SERT [1] | IC50 [2] [nM] | activity for NK-1 [2] |
| --- | --- | --- | --- | --- |
| FC(F)(F)c1cc(OCC2CNCC2c2ccccc2)cc(C(F)(F)F)c1 (stereo not drawn) [Example 10, Trans-3-((3,5-bis(trifluoromethyl)phenoxy)methyl)-4-phenylpyrrolidine trifluoroacetic acid salt] | 20 to 100 | have activity | 100 to 300 | have activity |
| FC(F)(F)c1cc(COC[C@@H]2CNC[C@H]2c2c[nH]c3ccccc23)cc(C(F)(F)F)c1 (relative stereo) [Example 8, Trans-3-(4-((3,5-bis(trifluoromethyl)benzy-loxy)methyl)pyrrolidin-3-yl)-1H-indole] |  |  | 100 to 300 |  |
| Cc1cc(C)cc(COCC2CNCC2c2ccccc2)c1 (stereo not drawn) [Example 2, Trans-3-((3,5-dimethylbenzyloxy)-methyl)-4-phenylpyrrolidine] | 20 to 100 | have activity | 100 to 300 | have activity |
| FC(F)(F)c1cc(OC[C@@H]2CNC[C@H]2c2c[nH]c3ccccc23)cc(C(F)(F)F)c1 (relative stereo) [Example 12, Trans-3-(4-((3,5-bis(trifluoromethyl)phenoxy)methyl)pyrrolidin-3-yl)-1H-indole] |  |  | 100 to 300 |  |
| Cc1cc(C)cc(OC[C@@H]2CNC[C@H]2c2ccccc2)c1 (relative stereo) [Example 11, Trans-3-((3,5-dimethylphenoxy)methyl)-4-phenylpyrrolidine hydrochloride] | 20 to 100 |  |  |  |

Now from value to compound:

| IC50 [1] [nM] | activity for SERT [1] | IC50 [2] [nM] | activity for NK-1 [2] | SMILES |
| --- | --- | --- | --- | --- |
| 100 to 300 |  |  |  | FC(F)(F)c1ccccc1COC[C@@H]1CNC[C@H]1c1ccccc1 (relative stereo) [Example 5, Trans-3-((2-trifluorobenzyloxy)-methyl)-4-phenylpyrrolidine] |
| 20 to 100 |  |  |  | FC(F)(F)c1cccc(COC[C@@H]2CNC[C@H]2c2ccccc2)c1 (relative stereo) [Example 6, Trans-3-((3-trifluoromethylbenzyloxy)-methyl)-4-phenylpyrrolidine] |
| 20 to 100 |  |  |  | Fc1cc(F)cc(COC[C@@H]2CNC[C@H]2c2ccccc2)c1 (relative stereo) [Example 4, Trans-3-((3,5-difluorobenzyloxy)methyl)-4-phenylpyrrolidine] |
|  |  | 20 to 100 |  | FC(F)(F)c1cc(COC[C@@H]2CNC[C@H]2c2ccccc2)cc(C(F)(F)F)c1 (relative stereo) [Example 1, Trans-3-((3,5-bis(trifluoromethyl)benzyloxy)methyl)-4-phenylpyrrolidine hydrochloride] |

Reference: patent US7138423B2, “Arylpyrrolidine derivatives as NK-1 /SSRI antagonists” (Bristol-Myers Squibb Company, priority 2004, dated 2006)
